Measurements reported in patent publication US8268827B2, “Pyridazinone derivatives as PARP inhibitors” (Istituto di Ricerche di Biologia Molecolare P. Angeletti …, priority 2007, dated 2012).
Where a name gives a salt, the structure may show the parent alone.

Key:
[1] = system: BRCA-1 silenced HeLa cells (HeLa shBRCA1-GFP); experiment: Proliferation assay in BRCA-1 silenced HeLa cells; format: cell-based; conditions: Homo sapiens; BRCA1 silenced HeLa cells, 168 hours; read-out: CC50 in the BRCA1 silenced HeLa cells
In short: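 HeLa cells with lentiviral shRNA BRCA1 knockdown (>80%), compared with control-vector HeLa, seeded at 300 cells/well. Compound exposure lasted 168 h at 37° C. Viability was read as resazurin-to-resorufin fluorescence (ex 550/em 590 nm).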

PARP-1 = target: T1, PARP-1 (Homo sapiens, UniProt P09874); experiment: PARP-1 SPA assay; format: biochemical
T1 construct: purchased Trevigen 4668-500-01
T1 sequence (P09874 whole entry): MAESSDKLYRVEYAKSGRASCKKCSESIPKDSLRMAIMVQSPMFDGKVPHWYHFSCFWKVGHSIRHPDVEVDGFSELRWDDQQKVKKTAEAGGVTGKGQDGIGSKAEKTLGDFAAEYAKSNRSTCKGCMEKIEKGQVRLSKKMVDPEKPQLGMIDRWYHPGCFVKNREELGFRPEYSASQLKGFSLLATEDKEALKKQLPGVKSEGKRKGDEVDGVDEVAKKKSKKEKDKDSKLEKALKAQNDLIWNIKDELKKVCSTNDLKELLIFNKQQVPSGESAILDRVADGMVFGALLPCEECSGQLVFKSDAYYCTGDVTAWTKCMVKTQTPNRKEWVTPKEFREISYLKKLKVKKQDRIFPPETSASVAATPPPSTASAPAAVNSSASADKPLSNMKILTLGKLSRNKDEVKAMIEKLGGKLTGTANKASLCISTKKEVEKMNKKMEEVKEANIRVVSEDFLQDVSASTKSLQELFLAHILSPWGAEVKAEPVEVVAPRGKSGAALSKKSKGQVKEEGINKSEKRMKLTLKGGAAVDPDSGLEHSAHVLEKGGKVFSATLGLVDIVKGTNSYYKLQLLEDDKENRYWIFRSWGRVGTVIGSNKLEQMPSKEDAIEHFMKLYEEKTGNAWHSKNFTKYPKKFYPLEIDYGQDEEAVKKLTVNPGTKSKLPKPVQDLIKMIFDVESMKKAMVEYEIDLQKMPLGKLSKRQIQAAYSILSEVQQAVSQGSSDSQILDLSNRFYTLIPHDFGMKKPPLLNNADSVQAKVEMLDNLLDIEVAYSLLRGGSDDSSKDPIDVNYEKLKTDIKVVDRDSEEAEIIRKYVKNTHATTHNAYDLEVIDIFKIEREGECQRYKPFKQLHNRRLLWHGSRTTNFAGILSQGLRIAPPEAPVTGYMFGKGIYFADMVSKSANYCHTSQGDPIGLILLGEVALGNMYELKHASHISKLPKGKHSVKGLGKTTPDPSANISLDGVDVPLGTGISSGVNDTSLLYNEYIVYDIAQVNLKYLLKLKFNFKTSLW
Description: Assay buffer: 100 mM Tris pH 8, 4 mM MgCl2, 4 mM Spermine, 200 mM KCl, 0.04% Nonidet P-40.
Nicotinamide-adenine dinucleotide (NAD)/DNA Mix: [^3H-NAD] (250 uCi/ml, 0.4 ul, Perkin-Elmer NET-443H), NAD (1.5 mM, 0.05 ul, SIGMA N-1511), Biotinylated-NAD (250 uM, 0.03 ul, Trevigen 4670-500-01), Activated calf thymus (1 mg/ml, 0.05 ul, Amersham Biosciences 27-4575), H2O (to 10 ul).
Developing Mix: Streptavidin SPA beads (5 mg/ml, Amersham Biosciences RPNQ 0007) dissolved in 500 mM EDTA.
The reaction is performed in 96-well microplate with a final volume of 50 uL/well. Add 5 ul 5% DMSO/compound solution, add enzyme mix (35 ul), start the reaction by adding NAD/DNA mix (10 uL) and incubate for 2 hrs at RT. Stop the reaction by adding developing mix (25 ul) and incubate 15 min at RT. Measure using a Packard TOP COUNT instrument.

| IC50 (PARP-1) | SMILES | CC50 [1] |
| --- | --- | --- |
| < 5 nM | Cc1c(Cc2ccc(F)c(C(=O)N3CC(=O)N(c4ccccc4)C(C)C3)c2)n[nH]c(=O)c1C (racemic) [Example 78 (LL4), 3-[4-Fluoro-3-(3-methyl-5-oxo-4-phenyl-piperazine-1-carbonyl)-benzyl]-4,5-dimethyl-6-oxo-1,6-dihydro-pyridazin-1-ium trifluoroacetate] | < 50 nM |
| < 5 nM | Cc1c(Cc2ccc(F)c(C(=O)N3CC(=O)N(c4ccc(F)cc4)C(C)C3)c2)n[nH]c(=O)c1C (racemic) [Example 79, 3-{4-Fluoro-3-[4-(4-fluoro-phenyl)-3-methyl-5-oxo-piperazine-1-carbonyl]-benzyl}-4,5-dimethyl-6-oxo-1,6-dihydro-pyridazin-1-ium trifluoroacetate] | < 50 nM |
| 5 to 25 nM | Cc1c(Cc2ccc(F)c(C(=O)N3CCN([C@H]4CC[C@H](F)C4)C(=O)C3)c2)n[nH]c(=O)c1C (relative stereo) [Example 212, 6-[4-Fluoro-3-({4-[(trans)-3-fluorocyclopentyl]-3-oxopiperazin-1-yl}carbonyl)benzyl]-4,5-dimethylpyridazin-3(2H)-one] | – |
| 5 to 25 nM | Cc1c(Cc2ccc(F)c(C(=O)N3CCN(C)C(=O)C3)c2)n[nH]c(=O)c1C [Example 7, 3-{4-Fluoro-3-[(4-methyl-3-oxopiperazin-1-yl)carbonyl]benzyl}-4,5-dimethyl-6-oxo-1,6-dihydropyridazin-1-ium trifluoroacetate] | – |
| 5 to 25 nM | COC(=O)CN1CCN(C(=O)c2cc(Cc3n[nH]c(=O)c(C)c3C)ccc2F)CC1=O [Example 24, Methyl (4-{5-[(4,5-dimethyl-6-oxo-1,6-dihydropyridazin-3-yl)methyl]-2-fluorobenzoyl}-2-oxopiperazin-1-yl)acetate trifluoroacetate] | – |
| 5 to 25 nM | Cc1c(Cc2ccc(F)c(C(=O)N3CCCN(C4CCCCC4)C(=O)C3)c2)n[nH]c(=O)c1C [Example 34, 6-{3-[(4-Cyclohexyl-3-oxo-1,4-diazepan-1-yl)carbonyl]-4-fluorobenzyl}-4,5-dimethyl-3-oxo-2,3-dihydropyridazin-1-ium trifluoroacetate] | – |
| 25 to 150 nM | Cc1c(Cc2ccc(F)c(C(=O)N3CCN(C4CCCCC4)C(=O)C3(C)C)c2)n[nH]c(=O)c1C [Example 37, 3-{3-[(4-Cyclohexyl-2,2-dimethyl-3-oxopiperazin-1-yl)carbonyl]-4-fluorobenzyl}-4,5-dimethyl-6-oxo-1,6-dihydropyridazin-1-ium trifluoroacetate] | – |
| 25 to 150 nM | Cc1c(Cc2ccc(F)c(C(=O)N3C[C@@H]4C[C@H]3C(=O)N4c3ccccc3)c2)n[nH]c(=O)c1C [Example 41, (1S,4S)-5-{5-[(4,5-Dimethyl-6-oxo-1,6-dihydropyridazin-3-yl)methyl]-2-fluorobenzoyl}-2-phenyl-2,5-diazabicyclo[2.2.1]heptan-3-one trifluoroacetate] | – |
| 5 to 25 nM | Cc1c(Cc2ccc(F)c(C(=O)N3CCN(CCF)C(=O)C3)c2)n[nH]c(=O)c1C [Example 58, 6-(4-Fluoro-3-{[4-(2-fluoroethyl)-3-oxopiperazin-1-yl]carbonyl}benzyl)-4,5-dimethyl-3-oxo-2,3-dihydropyridazin-1-ium trifluoroacetate] | – |
| 25 to 150 nM | Cc1c(Cc2ccc(F)c(C(=O)N3CCCN(C4CC4)C(=O)C3)c2)n[nH]c(=O)c1C [Example 82, 1-Cyclopropyl-4-{5-[(4,5-dimethyl-6-oxo-1,6-dihydropyridazin-3-yl)methyl]-2-fluorobenzoyl}-1,4-diazepan-2-one] | – |
| 25 to 150 nM | Cc1c(Cc2ccc(F)c(C(=O)N3CC(=O)N(C4CCCCC4)CC3(C)C)c2)n[nH]c(=O)c1C [Example 93, 3-{3-[(4-Cyclohexyl-2,2-dimethyl-5-oxopiperazin-1-yl)carbonyl]-4-fluorobenzyl}-4,5-dimethyl-6-oxo-1,6-dihydropyridazin-1-ium trifluoroacetate] | – |
| 5 to 25 nM | CCN1CCN(C(=O)c2cc(Cc3n[nH]c(=O)c(C(F)(F)F)c3C)ccc2F)CC1=O [Example 143, 6-{3-[(4-Ethyl-3-oxopiperazin-1-yl)carbonyl]-4-fluorobenzyl}-5-methyl-4-(trifluoromethyl)pyridazin-3(2H)-one] | – |
| – | Cc1c(Cc2ccc(F)c(C(=O)N3CC(=O)N(c4cccs4)[C@H](C)C3)c2)n[nH]c(=O)c1C [Example 195, 6-(4-Fluoro-3-{[(3R)-3-methyl-5-oxo-4-(2-thienyl)piperazin-1-yl]carbonyl}benzyl)-4,5-dimethylpyridazin-3(2H)-one] | < 50 nM |
| – | Cc1c(Cc2ccc(F)c(C(=O)N3CC(=O)N(c4ccc(Cl)cc4F)[C@H](C)C3)c2)n[nH]c(=O)c1C [Example 196, 6-(3-{[(3R)-4-(4-Chloro-2-fluorophenyl)-3-methyl-5-oxopiperazin-1-yl]carbonyl}-4-fluorobenzyl)-4,5-dimethylpyridazin-3(2H)-one] | < 50 nM |
| – | Cc1c(Cc2ccc(F)c(C(=O)N3CC(=O)N(c4ccc(F)c(C#N)c4)[C@H](C)C3)c2)n[nH]c(=O)c1C [Example 197, 5-((2R)-4-{5-[(4,5-Dimethyl-6-oxo-1,6-dihydropyridazin-3-yl)methyl]-2-fluorobenzoyl}-2-methyl-6-oxopiperazin-1-yl)-2-fluorobenzonitrile] | < 50 nM |
| – | Cc1c(Cc2ccc(F)c(C(=O)N3CC(=O)N(c4cc(F)cc(Cl)c4)[C@H](C)C3)c2)n[nH]c(=O)c1C [Example 198, 6-(3-{[(3R)-4-(3-Chloro-5-fluorophenyl)-3-methyl-5-oxopiperazin-1-yl]carbonyl}-4-fluorobenzyl)-4,5-dimethylpyridazin-3(2H)-one] | < 50 nM |
| – | Cc1c(Cc2ccc(F)c(C(=O)N3CC(=O)N(c4ccc(F)c(Cl)c4)[C@H](C)C3)c2)n[nH]c(=O)c1C [Example 199, 6-(3-{[(3R)-4-(3-Chloro-4-fluorophenyl)-3-methyl-5-oxopiperazin-1-yl]carbonyl}-4-fluorobenzyl)-4,5-dimethylpyridazin-3(2H)-one] | < 50 nM |
| – | Cc1c(Cc2ccc(F)c(C(=O)N3CCN([C@H](C)C(F)(F)F)C(=O)C3)c2)n[nH]c(=O)c1C [Example 200, 6-[4-Fluoro-3-({3-oxo-4-[(1R)-2,2,2-trifluoro-1-methylethyl]piperazin-1-yl}carbonyl)benzyl]-4,5-dimethylpyridazin-3(2H)-one] | < 50 nM |
| – | Cc1c(Cc2ccc(F)c(C(=O)N3CC(=O)N(c4ccc(C#N)cc4F)[C@H](C)C3)c2)n[nH]c(=O)c1C [Example 201, 4-((2R)-4-{5-[(4,5-Dimethyl-6-oxo-1,6-dihydropyridazin-3-yl)methyl]-2-fluorobenzoyl}-2-methyl-6-oxopiperazin-1-yl)-3-fluorobenzonitrile] | < 50 nM |
| – | Cc1c(Cc2ccc(F)c(C(=O)N3CC(=O)N(c4cc(F)cc(C#N)c4)[C@H](C)C3)c2)n[nH]c(=O)c1C [Example 202, 3-((2R)-4-{5-[(4,5-Dimethyl-6-oxo-1,6-dihydropyridazin-3-yl)methyl]-2-fluorobenzoyl}-2-methyl-6-oxopiperazin-1-yl)-5-fluorobenzonitrile] | < 50 nM |
| – | Cc1c(Cc2ccc(F)c(C(=O)N3CC(=O)N(c4ccc(F)c(F)c4)[C@H](C)C3)c2)n[nH]c(=O)c1C [Example 203, 6-(3-{[(3R)-4-(3,4-Difluorophenyl)-3-methyl-5-oxopiperazin-1-yl]carbonyl}-4-fluorobenzyl)-4,5-dimethylpyridazin-3(2H)-one] | < 50 nM |
| – | Cc1c(Cc2ccc(F)c(C(=O)N3CCN(C(C)C4CC4)C(=O)C3)c2)n[nH]c(=O)c1C (stereo not shown) [Example 204, 6-(3-{[4-(1-Cyclopropylethyl)-3-oxopiperazin-1-yl]carbonyl}-4-fluorobenzyl)-4,5-dimethylpyridazin-3(2H)-one] | 50 to 500 nM |
| – | Cc1c(Cc2ccc(F)c(C(=O)N3CC(=O)N(c4cc(Cl)ccc4F)[C@H](C)C3)c2)n[nH]c(=O)c1C [Example 205, 6-(3-{[(3R)-4-(5-Chloro-2-fluorophenyl)-3-methyl-5-oxopiperazin-1-yl]carbonyl}-4-fluorobenzyl)-4,5-dimethylpyridazin-3(2H)-one] | < 50 nM |
| – | Cc1c(Cc2ccc(F)c(C(=O)N3CC(=O)N(c4cccc(Cl)c4F)[C@H](C)C3)c2)n[nH]c(=O)c1C [Example 206, 6-(3-{[(3R)-4-(3-Chloro-2-fluorophenyl)-3-methyl-5-oxopiperazin-1-yl]carbonyl}-4-fluorobenzyl)-4,5-dimethylpyridazin-3(2H)-one] | < 50 nM |
| – | Cc1c(Cc2ccc(F)c(C(=O)N3CC(=O)N(c4ccc(Cl)c(F)c4)[C@@H](C)C3)c2)n[nH]c(=O)c1C [Example 208, 6-(3-{[(3S)-4-(4-Chloro-3-fluorophenyl)-3-methyl-5-oxopiperazin-1-yl]carbonyl}-4-fluorobenzyl)-4,5-dimethylpyridazin-3(2H)-one] | < 50 nM |
| – | Cc1c(Cc2ccc(F)c(C(=O)N3CC(=O)N(C4CC(F)(F)C4)[C@@H](C)C3)c2)n[nH]c(=O)c1C [Example 209, 6-(3-{[(3S)-4-(3,3-Difluorocyclobutyl)-3-methyl-5-oxopiperazin-1-yl]carbonyl}-4-fluorobenzyl)-4,5-dimethylpyridazin-3(2H)-one] | < 50 nM |
